The values below come from US6528523B2, “Farnesyl protein transferase inhibitors” (Schering Corporation, priority 2000, dated 2003).

For data set [1], the target named is T1, Farnesyl protein transferase (FPT) (Rattus norvegicus, UniProt Q02293+Q04631).
T1 construct: partially purified from rat brain by ammonium sulfate fractionation followed by Q-Sepharose; from tissue; host or cells: rat brain
The experiment in a line: In vitro enzyme assay: inhibition of farnesyl protein transferase. The following applies: transfer of [3H]farnesyl from [3H]farnesyl pyrophosphate to Ras-CVLS. The class given is biochemical. The protocol: 1. In Vitro Enzyme Assay:
Human farnesyl protein transferase was also expressed in E. coli, using cDNA clones encoding both the a and b subunits. […] Human farnesyl protein transferase was partially-purified from the soluble protein fraction of E. coli as described above. […] Two forms of val^12-Ha-Ras protein were prepared as substrates for these enzymes, differing in their carboxy terminal sequence. One form terminated in cysteine-valine-leucine-serine (Ras-CVLS) the other in cystein-valine-leucine-leucine (Ras-CVLL). Ras-CVLS is a substrate for the farnesyl protein transferase while Ras-CVLL is a substrate for geranylgeranyl protein transferase I. The cDNAs encoding these proteins were constructed so that the proteins contain an amino-terminal extension of 6 histidine residues. Both proteins were expressed in Escherichia coli and purified using metal chelate affinity chromatography. The radio labelled isoprenyl pyrophosphate substrates, [^3H]farnesyl pyrophosphate and [^3H] geranylgeranyl pyrophosphate, were purchased from DuPont/New England Nuclear.
The reaction was allowed to proceed for 30 minutes at room temperature and then stopped with 0.5 ml of 4% sodium dodecyl sulfate (SDS) followed by 0.5 ml of cold 30% TCA. Samples were allowed to sit on ice for 45 minutes and precipitated Ras protein was then collected on GF/C filter paper mats using a Brandel cell harvester. […] Percent inhibition was calculated relative to the DMSO vehicle control.

The test system of the next data set is Human tumor cells. The experiment in a line: Soft agar assay (anchorage-independent growth). Format: cell-based. The conditions noted are these: colony outgrowth 10-16 days. The protocol: Anchorage-independent growth is a characteristic of tumorigenic cell lines. Human tumor cells are suspended in growth medium containing 0.3% agarose and an indicated concentration of a farnesyl transferase inhibitor. The solution is overlayed onto growth medium solidified with 0.6% agarose containing the same concentration of farnesyl transferase inhibitor as the top layer. After the top layer is solidified, plates are incubated for 10-16 days at 37° C. under 5% CO2 to allow colony outgrowth. After incubation, the colonies are stained by overlaying the agar with a solution of MTT (3-[4,5-dimethylthiazol-2-yl]-2,5-diphenyltetrazolium bromide, Thiazolyl blue) (1 mg/mL in PBS). Colonies are counted and the IC50's determined.

Some results are limits rather than exact numbers.

T1 sequence (Q02293 whole entry, one chain of several): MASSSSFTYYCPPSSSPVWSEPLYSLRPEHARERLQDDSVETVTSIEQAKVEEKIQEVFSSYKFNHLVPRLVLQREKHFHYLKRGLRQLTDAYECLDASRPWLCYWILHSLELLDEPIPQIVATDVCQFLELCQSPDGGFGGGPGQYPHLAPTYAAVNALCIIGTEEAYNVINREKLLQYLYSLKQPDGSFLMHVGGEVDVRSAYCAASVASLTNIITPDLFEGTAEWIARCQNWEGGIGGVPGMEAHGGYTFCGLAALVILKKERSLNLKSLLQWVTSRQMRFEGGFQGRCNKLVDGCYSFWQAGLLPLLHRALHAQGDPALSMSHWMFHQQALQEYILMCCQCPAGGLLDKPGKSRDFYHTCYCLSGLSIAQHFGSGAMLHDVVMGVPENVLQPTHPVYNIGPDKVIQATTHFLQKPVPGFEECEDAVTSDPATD

On to `O=C(Cc1cc[n+]([O-])cc1)N1CCC(C2c3ncc(Br)cc3C=Cc3cc(Cl)cc(Br)c32)CC1` (single isomer, unassigned) [Compound 11], for which the melting point (as a rule, the temperature, or range, at which the solid turns liquid) lay in the range of 137 to 139 °C. In data set [1], it took 0.32 nM to reach half-maximal inhibition (IC50). In the data set with Human tumor cells, the midpoint of inhibition, the IC50, lay at 30 nM.

On to `O=C(Cc1cc[n+]([O-])cc1)N1CCC(C2c3ncc(Br)cc3C=Cc3cc(Cl)cc(Br)c32)CC1` (single isomer, unassigned) [Compound 12], for which the melting point lay within 142 to 143 °C. The IC50 (in general, the point on the concentration scale where inhibition reaches its midpoint) in data set [1] is over 17 nM.

The molecule `CS(=O)(=O)N1CCC(C2c3ncc(Br)cc3C=Cc3cc(Cl)cc(Br)c32)CC1` (single isomer, unassigned) [Compound 13] registered a melting point of 84 to 85 °C. The midpoint of inhibition in data set [1], the IC50, lay at 3.3 nM. The molecule further returned a half-maximal inhibitory concentration (IC50) with Human tumor cells of over 500 nM.

Turning to `CS(=O)(=O)N1CCC(C2c3ncc(Br)cc3C=Cc3cc(Cl)cc(Br)c32)CC1` (single isomer, unassigned) [Compound 14], the melting point lay within 91 to 92 °C. The IC50 in data set [1] is over 18 nM.

With `NC(=O)N1CCC(CC(=O)N2CCC(C3c4ncc(Br)cc4C=Cc4cc(Cl)cc(Br)c43)CC2)CC1` (single isomer, unassigned) [Compound 15], the melting point lay in the range of 146 to 147 °C. In data set [1], this molecule gave an IC50 of 0.4 nM. Besides, the midpoint of inhibition with Human tumor cells, the IC50, lay at 50 nM.

Molecule `NC(=O)N1CCC(CC(=O)N2CCC(C3c4ncc(Br)cc4C=Cc4cc(Cl)cc(Br)c43)CC2)CC1` (single isomer, unassigned) [Compound 16] had a melting point of 142 to 143 °C. Also, inhibition in data set [1] was half-maximal at 16 nM (IC50).
